This passage reports IC50 results from US8637525B2, “Compounds for the reduction of beta-amyloid production” (Bristol-Myers Squibb Company, priority 2009, dated 2014).

Structures can show the parent of a compound that is named as a salt. Where two headings read alike, the source gives them in different places.

In the test the test system is Aβ1-42 production. In words: Cellular assay for inhibition of Aβ1-42 production (H4 APP751 SWE clone 8.20). The note with it: H4 APP751 SWE clone 8.20 cells, 19 h incubation. Type of test: cell-based. The gist of the method:
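H4 cells stably expressing Swedish-mutant APP751 incubated with compound 19 h at 37 °C, 5% CO2. Secreted Aβ42 detected by HTRF with Aβ42 neoepitope antibody 565 (0.8 ng/well) and N-terminal 26D6 (75 ng/well), overnight at 4 °C. IC50 obtained by curve fitting.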

The mark [1] stands for this setting: class symbols, read-out: Activity Rating (Aβ42 cellular IC50).
Setting [2] is: 19 h, read-out: Activity Rating (Aβ42 cellular IC50), numeric value.
Where [3] appears, read: 19 h, class symbols, read-out: Activity Rating (Aβ42 cellular IC50).

Consider `COc1cc(Nc2nc3c(c(N4CC(F)(F)C4)n2)COCC3c2ccc(F)cc2)ccc1-n1cnc(Cl)c1` (centres unmarked) [Example 63B, N-(4-(4-chloro-1H-imidazol-1-yl)-3-methoxyphenyl)-4-(3,3-difluoroazetidin-1-yl)-8-(4-fluorophenyl)-7,8-dihydro-5H-pyrano[4,3-d]pyrimidin-2-amine], for which the IC50 (as a rule, the concentration that gives 50% inhibition) under setting [1] lay within 100 to 1000 nM. Take `COc1cc(Nc2nc3c(c(N4CC(OC)C4)n2)CCC3c2ccccc2)ccc1-n1cnc(Cl)c1` (centres unmarked) [Example 183, N-(4-(4-chloro-1H-imidazol-1-yl)-3-methoxyphenyl)-4-(3-methoxyazetidin-1-yl)-7-phenyl-6,7-dihydro-5H-cyclopenta[d]pyrimidin-2-amine]: under setting [2], the IC50 was determined as 11 nM. `CNc1nc(Nc2ccc(-n3ncnc3C)c(F)c2)nc2c1COCC2c1ccc(Cl)cc1` (single isomer, unassigned) [Example 69B, 8-(4-chlorophenyl)-N^2-(3-fluoro-4-(5-methyl-1H-1,2,4-triazol-1-yl)phenyl)-N^4-methyl-7,8-dihydro-5H-pyrano[4,3-d]pyrimidine-2,4-diamine]: the IC50 under setting [1] was 100 to 1000 nM. In the case of `COc1cc(Nc2nc3c(c(N4CCC(O)(C(F)(F)F)C4)n2)CCC3c2ccc(F)cc2)ccc1-n1cnc(Cl)c1` (single isomer, unassigned) [Example 27, 1-(2-(4-(4-chloro-1H-imidazol-1-yl)-3-methoxyphenylamino)-7-(4-fluorophenyl)-6,7-dihydro-5H-cyclopenta[d]pyrimidin-4-yl)-3-(trifluoromethyl)pyrrolidin-3-ol], the IC50 under setting [3] was in the range of 10 to 100 nM. Take `COc1cc(Nc2nc3c(c(N4CC(F)(F)C4)n2)CCC3c2ccc(F)cc2)ccc1-n1cnc(Cl)n1` (single isomer, unassigned) [Example 17A, N-(4-(3-chloro-1H-1,2,4-triazol-1-yl)-3-methoxyphenyl)-4-(3,3-difluoroazetidin-1-yl)-7-(4-fluorophenyl)-6,7-dihydro-5H-cyclopenta[d]pyrimidin-2-amine]: the IC50 under setting [2] worked out at 120 nM. As to `COc1cc(Nc2nc3c(c(N4CC(=O)C4)n2)CCC3c2ccccc2)ccc1-n1cnc(Cl)c1` (centres unmarked) [Example 185, 1-(2-(4-(4-chloro-1H-imidazol-1-yl)-3-methoxyphenylamino)-7-phenyl-6,7-dihydro-5H-cyclopenta[d]pyrimidin-4-yl)azetidin-3-one], the IC50 under setting [3] lay in the range of 10 to 100 nM. Take `CCNc1nc(Nc2ccc(-n3cnc(Cl)c3)c(OC)c2)nc2c1CN(C(=O)OC)CC2c1ccccc1` (centres unmarked) [Example 131, Methyl 2-(4-(4-chloro-1H-imidazol-1-yl)-3-methoxyphenylamino)-4-(ethylamino)-8-phenyl-7,8-dihydropyrido[4,3-d]pyrimidine-6(5H)-carboxylate]: under setting [1], the IC50 lay within 10 to 100 nM. For the compound `CCNc1nc(Nc2ccc(-n3cnc(C)n3)c(F)c2)nc2c1CN(CC(F)F)CC2c1ccccc1` (centres unmarked) [Example 195A, 6-(2,2-difluoroethyl)-N4-ethyl-N2-(3-fluoro-4-(3-methyl-1H-1,2,4-triazol-1-yl)phenyl)-8-phenyl-5,6,7,8-tetrahydropyrido[4,3-d]pyrimidine-2,4-diamine], under “read-out: Activity Rating (Aβ42 cellular IC50), numeric value”, the IC50 was 26 nM. With `COc1cc(Nc2nc3c(c(N(C)C)n2)C[C@H](O)[C@H]3c2ccccc2)ccc1-n1cnc(Cl)c1` [Example 180, (6S,7S)-2-(4-(4-chloro-1H-imidazol-1-yl)-3-methoxyphenylamino)-4-(dimethylamino)-7-phenyl-6,7-dihydro-5H-cyclopenta[d]pyrimidin-6-ol], under setting [3], the IC50 fell in the range of 10 to 100 nM. On to `CNc1nc(Nc2ccc(-n3cnc(C)n3)c(F)c2)nc2c1CN(S(=O)(=O)C1CC1)CC2c1ccccc1` (centres unmarked) [Example 141, 6-(cyclopropylsulfonyl)-N2-(3-fluoro-4-(3-methyl-1H-1,2,4-triazol-1-yl)phenyl)-N4-methyl-8-phenyl-5,6,7,8-tetrahydropyrido[4,3-d]pyrimidine-2,4-diamine], for which, under setting [1], the IC50 is 10 to 100 nM. As for `CCN(C)c1nc(Nc2ccc(-n3cnc(Cl)c3)c(OC)c2)nc2c1CNCC2c1ccc(F)cc1` (centres unmarked) [Example 161, N2-(4-(4-chloro-1H-imidazol-1-yl)-3-methoxyphenyl)-N4-ethyl-8-(4-fluorophenyl)-N4-methyl-5,6,7,8-tetrahydropyrido[4,3-d]pyrimidine-2,4-diamine], the IC50 under setting [3] lay in the range of 100 to 1000 nM. Regarding `CCN(C)c1nc(Nc2ccc(-n3cnc(Cl)c3)c(OC)c2)nc2c1CCN(S(C)(=O)=O)C2c1ccc(F)cc1` (centres unmarked) [Example 172B, N2-(4-(4-chloro-1H-imidazol-1-yl)-3-methoxyphenyl)-N4-ethyl-8-(4-fluorophenyl)-N4-methyl-7-(methylsulfonyl)-5,6,7,8-tetrahydropyrido[3,4-d]pyrimidine-2,4-diamine], under setting [1], the IC50 was 100 to 1000 nM. Regarding `COc1cc(Nc2nc3c(c(N4CC(F)(F)C4)n2)COCC3c2ccc(F)c(F)c2)ccc1-n1cnc(Cl)c1` (racemic) [Example 114, N-(4-(4-chloro-1H-imidazol-1-yl)-3-methoxyphenyl)-4-(3,3-difluoroazetidin-1-yl)-8-(3,4-difluorophenyl)-7,8-dihydro-5H-pyrano[4,3-d]pyrimidin-2-amine, TFA], the IC50 under setting [3] lay within 1.5 to 9.9 nM. On to `CNc1nc(Nc2ccc(-n3ncnc3C)c(F)c2)nc2c1COC2c1ccc(F)cc1` (racemic) [Example 82, N2-(3-fluoro-4-(5-methyl-1H-1,2,4-triazol-1-yl)phenyl)-7-(4-fluorophenyl)-N4-methyl-5,7-dihydrofuro[3,4-d]pyrimidine-2,4-diamine, TFA], for which the IC50 under setting [3] lay in the range of 10 to 100 nM. Consider `COc1cc(Nc2nc3c(c(N4CCC4)n2)CCC3c2ccc(OC(F)(F)F)cc2)ccc1-n1cnc(Cl)c1` (single isomer, unassigned) [Example 101B, 4-(azetidin-1-yl)-N-(4-(4-chloro-1H-imidazol-1-yl)-3-methoxyphenyl)-7-(4-(trifluoromethoxy)phenyl)-6,7-dihydro-5H-cyclopenta[d]pyrimidin-2-amine], for which the IC50 under setting [1] lay in the range of 10 to 100 nM. For the compound `CNc1nc(Nc2ccc(-n3cnc(C)n3)c(OC)c2)nc2c1CC[C@H]2c1ccccc1Cl` (single isomer, unassigned) [Example 268A], the IC50 under setting [3] fell in the range of 1.5 to 9.9 nM. As to `CNc1nc(Nc2ccc(-n3cnc(C)n3)c(OC)c2)nc2c1COCC2c1ccc(F)cc1` (centres unmarked) [Example 54A, 8-(4-fluorophenyl)-N2-(3-methoxy-4-(3-methyl-1H-1,2,4-triazol-1-yl)phenyl)-N4-methyl-7,8-dihydro-5H-pyrano[4,3-d]pyrimidine-2,4-diamine], the IC50 under setting [1] was in the range of 10 to 100 nM. For `CNc1nc(Nc2ccc(C(F)(F)F)cc2)nc2c1CCC2c1ccccc1` (centres unmarked) [Example 239, N4-methyl-7-phenyl-N2-(4-(trifluoromethyl)phenyl)-6,7-dihydro-5H-cyclopenta[d]pyrimidine-2,4-diamine], under setting [3], the IC50 lay within 100 to 1000 nM. For `COc1cc(Nc2nc3c(c(N4CCNCC4)n2)CCC3c2ccc(F)cc2)ccc1-n1cnc(Cl)c1` (centres unmarked) [Example 31, N-(4-(4-chloro-1H-imidazol-1-yl)-3-methoxyphenyl)-7-(4-fluorophenyl)-4-(piperazin-1-yl)-6,7-dihydro-5H-cyclopenta[d]pyrimidin-2-amine], under setting [3], the IC50 fell in the range of 100 to 1000 nM. Take `CCNc1nc(Nc2ccc(-n3cnc(Cl)c3)c(OC)c2)nc2c1COC2c1ccc(F)cc1` (single isomer, unassigned) [Example 75A, N^2-(4-(4-chloro-1H-imidazol-1-yl)-3-methoxyphenyl)-N^4-ethyl-7-(4-fluorophenyl)-5,7-dihydrofuro[3,4-d]pyrimidine-2,4-diamine]: the half-inhibitory concentration (IC50) under setting [1] is 1.5 to 9.9 nM.
